The structures appear in SMILES notation. Values after ≈ are worked out from the molar mass of the structure shown. Where two headings read alike, the source gives them in different places.

Holding throughout (type): physicochemical
A short description of data set [1]: Stability of the crystalline form (transition of Form 2 into Form 3). The following applies: Form 2 transitions into Form 3 above around 30° C. in about 1-5 min, or in solvent for more than 5 min at around 25° C. Here is the method: Alternatively, Form 2 transitioned into Form 3 upon equilibration in solvent (e.g. acetone) for more than 5 min at around 25° C.

Data set [2] is described as follows: Dynamic vapour sorption (DVS), hygroscopicity. The procedure:
Dynamic vapour sorption (DVS) measurements were performed with an SPS11-100n “Sorptions Prüfsystem” from ProUmid (formerly “Projekt Messtechnik”), August-Nagel-Str. 23, 89079 Ulm (Germany). About 5 mg to 20 mg of sample was put into an aluminum sample pan. Humidity change rates of 5% per hour were used. The applied measurement program can be described as follows:
The sample was placed on an aluminium or platinum holder on top of a microbalance and allowed to equilibrate at a relative humidity (RH) of 50% before starting the pre-defined humidity programs: • (1) 2 h at 50% RH • (2) 50→0% RH (5%/h); 5 h at 0% RH • (3) 0→95% RH (5%/h); 5 h at 95% RH • (4) 95→0% RH (5%/h); 5 h at 0% RH • (5) 0→95% RH (5%/h); 5 h at 95% RH • (6) 95→50% RH (5%/h); 2 h at 50% RH

A short description of data set [3]: Approximate solubility by incremental solvent addition with shaking/sonication. The following applies: for solubility: thermodynamic from solid, about 25° C., approximate, read-out: Solubility S. The procedure:
Approximate solubilities were determined by incremental addition of solvent to about 10 mg the compound and subsequent shaking and/or sonication for a short period of time. If the substance was not dissolved by addition of a total of at least 10 ml solvent, the solubility is indicated as <1 mg/ml. The experiments were conducted at about 25° C.
Compound (I) was purified using a silica gel column to remove borate esters followed by a short equilibration in acetonitrile (about 1-5 min). Solubility of purified compound (I) in acetonitrile was determined to be between 5 mg/mL and 8 mg/mL. These values were determined by adding small aliquots of solvent to −10 mg of solid compound (I) and shaking/sonicating for a short period of time at room temperature (about 25° C.).

With `OC[C@H]1[C@@H](O)[C@H](O)[C@@H](O)CN1CCCCCOCc1ccc(-c2ccccc2)c(F)c1` [Form 2], the “Stability of the crystalline form” value in data set [1] is “low stability”. In addition, the “Hygroscopicity (description)” value in data set [2] is “hygroscopic”. Besides, the Solubility in water in data set [3] (Form 2 crystalline form, summary Table 3) is listed as roughly 80 mg/mL (≈ 185 mM).

What is called solubility is how much of the substance goes into solution per volume. Consider `OC[C@H]1[C@@H](O)[C@H](O)[C@@H](O)CN1CCCCCOCc1ccc(-c2ccccc2)c(F)c1` [compound (I)], for which the solubility in data set [3] (organic solvent or mixture, 1-Propanol) is 13 to 15 mg/mL (≈ 30 to 34.6 mM); in data set [3] (organic solvent or mixture, 2-Propanol), 19 to 20 mg/mL (≈ 43.8 to 46.1 mM); in data set [3] (organic solvent or mixture, Acetic acid), greater than 120 mg/mL; in data set [3] (organic solvent or mixture, Acetone), 55 to 73 mg/mL (≈ 127 to 168 mM); in data set [3] (organic solvent or mixture, Acetonitrile) it was 5 to 8 mg/mL (≈ 11.5 to 18.5 mM); in data set [3] (organic solvent or mixture, DCM), greater than 160 mg/mL. Also, the solubility in data set [3] (organic solvent or mixture, Ethanol) was 40 to 53 mg/mL (≈ 92.3 to 122 mM); in data set [3] (organic solvent or mixture, Ethyl acetate), 12 to 13 mg/mL (≈ 27.7 to 30 mM); in data set [3] (organic solvent or mixture, MEK), 40 to 50 mg/mL (≈ 92.3 to 115 mM); in data set [3] (organic solvent or mixture, Methanol), greater than 160 mg/mL; in data set [3] (organic solvent or mixture, THF), greater than 200 mg/mL; in data set [3] (Water) it was roughly 80 mg/mL (≈ 185 mM).

The record behind these values is patent US12116344B2, “Crystalline forms of a pharmaceutical compound” (Azafaros B.V., priority 2020, dated 2024).
